Measured values as given in patent US20060276464A1, “Diarylsulfone sulfonamides and use thereof” (Wyeth, priority 2005, published 2006).
Like-named read-outs stand apart in the source and are kept apart here.

How the values were obtained:
[1] = molecular target: T1, SFRP-1 (Homo sapiens, UniProt Q8N474); test: Cell-based assay for in vitro measurement of SFRP-1/SARP2 antagonist activity (U2OS cells co-transfected with 16x TCF-tk-Luciferase reporter, Wnt and hSFRP-1); conditions: for fold induction at 10 µM / fold induction at 15 µM: U2OS;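 as to all read-outs here: U2OS cells co-transfected with a TCF-tk luciferase reporter, a Wnt vector, hSFRP-1 or empty vector and CMV-βgal, luciferase luminescence read in cell lysates alongside βgal activity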
T1 sequence (Q8N474 32-314): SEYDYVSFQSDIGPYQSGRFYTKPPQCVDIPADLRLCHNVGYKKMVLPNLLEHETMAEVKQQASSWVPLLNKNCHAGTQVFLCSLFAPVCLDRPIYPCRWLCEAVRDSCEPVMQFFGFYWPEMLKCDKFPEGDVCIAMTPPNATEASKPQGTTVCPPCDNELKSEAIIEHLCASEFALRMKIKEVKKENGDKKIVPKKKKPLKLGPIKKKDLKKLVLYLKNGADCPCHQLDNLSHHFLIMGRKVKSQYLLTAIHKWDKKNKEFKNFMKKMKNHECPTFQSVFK

[2] = molecular target: T1, SFRP-1; test: Fluorescence polarization binding assay (competitive displacement of a probe compound from SFRP-1); conditions: fluorescence anisotropy, 45 nM SFRP-1, 20 nM probe;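 also: test compound competes with a fluorescent probe held by SFRP-1, seen as a drop in probe anisotropy after incubation in darkness, with anisotropy as function of rising compound dose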
[3] = read-out: Fold Induction with SFRP-1, U2OS cells, single dose 10 μM, luciferase reporter, fold induction over SFRP-1 control
[4] = read-out: Fold Induction with SFRP-1, Conc 15 μM, single dose, luciferase reporter, fold induction over SFRP-1 control, cells with SFRP-1
[5] = read-out: Fold Induction without SFRP-1, Conc 15 μM, single dose, luciferase reporter, cells without SFRP-1 (specificity control)

Row | Structure (SMILES) | IC50 [2] [nM] | EC50 [1] [nM] | fold induction at 10 µM [1, 3] | fold induction at 15 µM ([1]; read-out: Fold Induction with SFRP-1, Conc 15 μM, with SFRP-1, fold induction over SFRP-1 control, single dose) | fold induction at 15 µM ([1]; read-out: Fold Induction without SFRP-1, Conc 15 μM, without SFRP-1, single dose) | fold induction at 15 µM [1, 4] | fold induction at 15 µM [1, 5] | fold induction at 10 µM ([1]; read-out: Fold Induction with SFRP-1)
1 | CN(CCNS(=O)(=O)c1cc(S(=O)(=O)c2ccccc2)ccc1C(F)(F)F)C(=O)Oc1ccc(Br)cc1 [Example 873, 4-bromophenyl methyl[2-({[5-(phenylsulfonyl)-2-(trifluoromethyl)phenyl]sulfonyl}amino)ethyl]carbamate] | 1600 | – | – | – | – | – | – | 2.1
2 | CN(CCNS(=O)(=O)c1cc(S(=O)(=O)c2ccccc2)ccc1C(F)(F)F)C(=O)N[C@H]1CCCNC1 [Example 1023, N-[2-(methyl{[(3S)-piperidin-3-ylamino]carbonyl}amino)ethyl]-5-(phenylsulfonyl)-2-(trifluoromethyl)benzenesulfonamide] | 210 | 547 | – | – | – | – | – | –
3 | CN(CCNS(=O)(=O)c1cc(S(=O)(=O)c2ccccc2)ccc1C(F)(F)F)C(=O)N[C@H]1CCNC1 [Example 937, N-[2-(methyl{[(3S)-pyrrolidin-3-ylamino]carbonyl}amino)ethyl]-5-(phenylsulfonyl)-2-(trifluoromethyl)benzenesulfonamide] | 1700 | 2300 | 2.8 | – | – | – | – | –
4 | O=C(O)c1cccc(N2CCC(CCNS(=O)(=O)c3cc(S(=O)(=O)c4ccccc4)ccc3C(F)(F)F)CC2)c1 [Example 957, 3-{4-[2-({[5-(phenylsulfonyl)-2-(trifluoromethyl)phenyl]sulfonyl}amino)ethyl]piperidin-1-yl}benzoic acid] | 300 | 1390 | 3.9 | – | – | – | – | –
5 | CC(CO)NS(=O)(=O)c1cc(S(=O)(=O)c2ccccc2)ccc1C(F)(F)F (stereo not shown) [Example 683, N-(2-hydroxy-1-methylethyl)-5-(phenylsulfonyl)-2-(trifluoromethyl)benzenesulfonamide] | 1200 | 3100 | 3.7 | – | – | – | – | –
6 | COCCCNS(=O)(=O)c1cc(S(=O)(=O)c2ccccc2)ccc1C(F)(F)F [Example 768, N-(3-methoxypropyl)-5-(phenylsulfonyl)-2-(trifluoromethyl)benzenesulfonamide] | 400 | 1130 | 3.4 | – | – | – | – | –
7 | CNCCCNS(=O)(=O)c1cc(S(=O)(=O)c2ccccc2)ccc1C(F)(F)F [Example 929, N-[3-(methylamino)propyl]-5-(phenylsulfonyl)-2-(trifluoromethyl)benzenesulfonamide] | 4000 | 3320 | 2.9 | – | – | – | – | –
8 | O=S(=O)(NCc1ccncc1)c1cc(S(=O)(=O)c2ccccc2)ccc1C(F)(F)F [Example 949, 5-(phenylsulfonyl)-N-(pyridin-4-ylmethyl)-2-(trifluoromethyl)benzenesulfonamide] | 800 | 1000 | 3.2 | – | – | – | – | –
9 | O=S(=O)(NC[C@H](O)c1ccccc1)c1cc(S(=O)(=O)c2ccccc2)ccc1C(F)(F)F [Example 773, N-[(2R)-2-hydroxy-2-phenylethyl]-5-(phenylsulfonyl)-2-(trifluoromethyl)benzenesulfonamide] | 1900 | 1300 | 1.2 | – | – | – | – | –
10 | COC(=O)CN(C)CCNS(=O)(=O)c1cc(S(=O)(=O)c2ccccc2)ccc1C(F)(F)F [Example 906, methyl N-methyl-N-[2-({[5-(phenylsulfonyl)-2-(trifluoromethyl)phenyl]sulfonyl}amino)ethyl]glycinate] | 900 | 1340 | 2.9 | – | – | – | – | –
11 | CN(CCNS(=O)(=O)c1cc(S(=O)(=O)c2ccccc2)ccc1C(F)(F)F)C(=O)c1ccccc1OC(F)(F)F [Example 839, N-Methyl-N-[2-({[5-(phenylsulfonyl)-2-(trifluoromethyl)phenyl]sulfonyl}amino)ethyl]-2-(trifluoromethoxy)benzamide] | 300 | 2380 | 3.5 | – | – | – | – | –

Further lines, with some results ahead:

Row | IC50 [2] [nM] | EC50 [1] [nM] | fold induction at 10 µM [1, 3] | fold induction at 15 µM ([1]; read-out: Fold Induction with SFRP-1, Conc 15 μM, with SFRP-1, fold induction over SFRP-1 control, single dose) | fold induction at 15 µM ([1]; read-out: Fold Induction without SFRP-1, Conc 15 μM, without SFRP-1, single dose) | fold induction at 15 µM [1, 4] | fold induction at 15 µM [1, 5] | Structure (SMILES) | fold induction at 10 µM ([1]; read-out: Fold Induction with SFRP-1)
12 | 2900 | 8700 | 2.6 | – | – | – | – | CCCCNC(=S)N1CCC(NS(=O)(=O)c2cc(S(=O)(=O)c3ccc(F)cc3)ccc2C(C)C)CC1 [Example 694, N-butyl-4-[({5-[(4-fluorophenyl)sulfonyl]-2-isopropylphenyl}sulfonyl)amino]piperidine-1-carbothioamide] | –
13 | 500 | 397 | 1.7 | – | – | – | – | CC(C)c1ccc(S(=O)(=O)c2ccc(F)cc2)cc1S(=O)(=O)NC1CCN(C(=S)Nc2cccc(C(=O)O)c2)CC1 [Example 700, 3-[({4-[({5-[(4-fluorophenyl)sulfonyl]-2-isopropylphenyl}sulfonyl)amino]piperidin-1-yl}carbonothioyl)amino]benzoic acid] | –
14 | 2600 | – | – | 1.7 | 1 | – | – | CC(C)c1ccc(S(=O)(=O)c2ccc(C(C)(C)C)cc2)cc1S(=O)(=O)NCCc1ccccn1 [Example 435, 5-[(4-tert-butylphenyl)sulfonyl]-2-isopropyl-N-(2-pyridin-2-ylethyl)benzenesulfonamide] | –
15 | 400 | – | – | – | – | 2.9 | 0.9 | N#CN1CCC(NS(=O)(=O)c2cc(S(=O)(=O)c3ccccc3)ccc2Cl)CC1 [Example 651, 2-chloro-N-(1-cyanopiperidin-4-yl)-5-(phenylsulfonyl)benzenesulfonamide] | –
16 | 700 | – | – | – | – | 2.9 | 1.1 | CC(C)c1ccc(S(=O)(=O)c2ccc(NCCC#N)cc2)cc1S(=O)(=O)NCCC1CCOCC1 [Example 537, 5-({4-[(2-cyanoethyl)amino]phenyl}sulfonyl)-2-isopropyl-N-[2-(tetrahydro-2H-pyran-4-yl)ethyl]benzenesulfonamide] | –
17 | 600 | – | – | – | – | 3.4 | 1 | Cc1cccc(S(=O)(=O)c2ccc(C(C)C)c(S(=O)(=O)NCCc3ccccn3)c2)c1 [Example 579, 2-isopropyl-5-[(3-methylphenyl)sulfonyl]-N-(2-pyridin-2-ylethyl)benzenesulfonamide] | –
18 | 400 | 390 | 3.7 | – | – | – | – | N[C@H]1CC[C@H](NS(=O)(=O)c2cc(S(=O)(=O)c3ccccc3)ccc2C(F)(F)F)CC1 [Example 959, N-(trans-4-aminocyclohexyl)-5-(phenylsulfonyl)-2-(trifluoromethyl)benzenesulfonamide] | –
19 | 1400 | – | – | – | – | 2.3 | 0.9 | CCCc1ccc(S(=O)(=O)c2ccc(F)cc2)cc1S(=O)(=O)NCC1CCOCC1 [Example 561, 5-[(4-Fluorophenyl)sulfonyl]-2-propyl-N-(tetrahydro-2H-pyran-4-ylmethyl)benzenesulfonamide] | –
20 | 300 | 896 | 3.7 | – | – | – | – | CC(C)(C)OC(=O)N1CCC[C@@H](NS(=O)(=O)c2cc(S(=O)(=O)c3ccccc3)ccc2C(F)(F)F)C1 [Example 787, tert-butyl(3R)-3-({[5-(phenylsulfonyl)-2-(trifluoromethyl)phenyl]sulfonyl}amino)piperidine-1-carboxylate] | –
21 | 1400 | – | – | – | – | 3.9 | 1.1 | O=C(N1CCC(NS(=O)(=O)c2cc(S(=O)(=O)c3ccccc3)ccc2Cl)CC1)C(F)(F)F [Example 647, 2-chloro-5-(phenylsulfonyl)-N-[1-(trifluoroacetyl)piperidin-4-yl]benzenesulfonamide] | –
